Assay results as given in PMC11149917, “Translational and Therapeutic Evaluation of RAS-GTP Inhibition by RMC-6236 in RAS-Driven Cancers” (Cancer Discovery, 2024).
Several values for one entry are separate records, joined by “and”; a condition that tells them apart may be missing. Identical values can stand only once. Like-named read-outs stand apart in the source and are kept apart here.

Test: Mouse blood and tissue PK (LC/MS-MS)
Type: in vivo
Conditions: for AUC(0-t): read-out: Blood AUClast; for half-life: read-out: Blood t1/2 (converted); for concentration at 4 h: read-out: RMC-6236 (nM) Tumor
Method: For single-dose PKPD study, mice were randomized and assigned into groups (n = 3/dose/time point). […] Blood and tissues, including the tumor, brain, colon, ear skin, and muscle, were harvested at indicated time points. […] The whole blood, tumor, brain, colon, and ear skin concentrations of RMC-6236 were determined using liquid chromatography–tandem mass spectrometry (LC/MS-MS) methods. […] After thorough mixing and centrifugation, the supernatant was diluted with water or directly analyzed on a Sciex 5500 or Sciex 6500+ triple quadrupole mass spectrometer equipped with an ACQUITY or Shimadzu UPLC system. […] Bioanalysis on blood and tissue samples from xenograft models was run at Pharmaron and Wuxi AppTec. Concentrations reported as below the quantification limit were treated as zero for PK analysis. PK parameters were calculated by noncompartmental analysis of the concentration–time profiles using Phoenix WinNonLin (version 8.3 Certara). Apparent terminal elimination half-life (t1/2) values were calculated as ln(2)/k, where k represents the terminal elimination rate constant. Area under the concentration–time curve (AUC) values were estimated using a linear trapezoidal method. AUClast values were calculated from the dosing time to the last quantifiable concentration. Maximum concentration (Cmax) was recorded as observed.

[1] = Balb/c nude, mouse, whole blood, po, 25 mg/kg, LU99-luc IC (25 mg/kg), single dose
[2] = Balb/c nude, mouse, whole blood, sc, 25 mg/kg, LU99-luc SC (25 mg/kg), single dose
[3] = Capan-2 (10 mg/kg), single dose
[4] = Capan-2 (25 mg/kg), single dose
[5] = LU99-luc IC #2 (25 mg/kg), adjacent normal brain
[6] = LU99-luc IC #2 (25 mg/kg), intracranial tumor
[7] = LU99-luc IC (25 mg/kg), intracranial tumor
[8] = LU99-luc SC (25 mg/kg), subcutaneous xenograft tumor
[9] = NCI-H358 (25 mg/kg), single dose
[10] = NCI-H441 #2 (25 mg/kg), QD x 10 days
[11] = NCI-H441 (3 mg/kg), single dose
[12] = NCI-H441 (10 mg/kg), single dose
[13] = NCI-H441 (25 mg/kg), single dose

CCn1c(-c2cc(N3CCN(C)CC3)cnc2[C@H](C)OC)c2c3cc(ccc31)-c1csc(n1)C[C@H](NC(=O)[C@H]1C[C@@H]1C)C(=O)N1CCC[C@H](N1)C(=O)OCC(C)(C)C2 [RMC-6236]
AUC(0-t) [1]: 16700 ng·h/mL
half-life [1]: 3.81 h
Cmax [2]: 1650 ng/mL
AUC(0-t) [2]: 18600 ng·h/mL
half-life [2]: 3.13 h
Tumor AUClast (Capan-2 (3 mg/kg), single dose): 5138 ng·h/mL
Tumor Cmax (Capan-2 (3 mg/kg), single dose): 218 ng/mL
Tumor AUClast [3]: 23425 ng·h/mL
Tumor Cmax [3]: 906 ng/mL
Tumor AUClast [4]: 66696 ng·h/mL
Tumor Cmax [4]: 3000 ng/mL
concentration at 4 h (Capan-2, study Capan-2 #3_PHA 2020, 0.3 mg/kg, 2h): 21.6 nM and 12.8 nM
concentration at 4 h (Capan-2, study Capan-2 #3_PHA 2020, 0.3 mg/kg, 8h): 15.8 nM and 20.9 nM
concentration at 4 h (Capan-2, study Capan-2 #3_PHA 2020, 0.3 mg/kg, 24h): 7.5 nM and 9 nM
RMC-6236 (nM) Tumor (Capan-2, study Capan-2 #3_PHA 2020, 0.3 mg/kg, 48h): BQL
concentration at 4 h (Capan-2, study Capan-2 #3_PHA 2020, 3 mg/kg, 2h): 206 nM and 213 nM
concentration at 4 h (Capan-2, study Capan-2 #3_PHA 2020, 3 mg/kg, 8h): 232 nM and 155 nM
concentration at 4 h (Capan-2, study Capan-2 #3_PHA 2020, 3 mg/kg, 24h): 93 nM and 106 nM
concentration at 4 h (Capan-2, study Capan-2 #3_PHA 2020, 3 mg/kg, 48h): 29 nM and 32 nM
concentration at 4 h (Capan-2, study Capan-2 #3_PHA 2020, 10 mg/kg, 2h): 735 nM and 868 nM
concentration at 4 h (Capan-2, study Capan-2 #3_PHA 2020, 10 mg/kg, 8h): 784 nM and 1189 nM
concentration at 4 h (Capan-2, study Capan-2 #3_PHA 2020, 10 mg/kg, 24h): 388 nM and 425 nM
concentration at 4 h (Capan-2, study Capan-2 #3_PHA 2020, 10 mg/kg, 48h): 127 nM and 106 nM
concentration at 4 h (Capan-2, study Capan-2 #3_PHA 2020, 25 mg/kg, 2h): 1563 nM and 2949 nM
concentration at 4 h (Capan-2, study Capan-2 #3_PHA 2020, 25 mg/kg, 8h): 2249 nM and 3216 nM
concentration at 4 h (Capan-2, study Capan-2 #3_PHA 2020, 25 mg/kg, 24h): 1455 nM and 1672 nM
concentration at 4 h (Capan-2, study Capan-2 #3_PHA 2020, 40 mg/kg, 2h): 6510 nM and 4764 nM
concentration at 4 h (Capan-2, study Capan-2 #3_PHA 2020, 40 mg/kg, 8h): 4542 nM and 4547 nM
concentration at 4 h (Capan-2, study Capan-2 #3_PHA 2020, 40 mg/kg, 24h): 2254 nM
concentration at 4 h (Capan-2, study Capan-2 #3_PHA 2023, 3 mg/kg, 2h): 210.835 nM and 145.489 nM
concentration at 4 h (Capan-2, study Capan-2 #3_PHA 2023, 3 mg/kg, 4h): 272.483 nM and 245.358 nM
concentration at 4 h (Capan-2, study Capan-2 #3_PHA 2023, 3 mg/kg, 8h): 266.318 nM and 212.068 nM
concentration at 4 h (Capan-2, study Capan-2 #3_PHA 2023, 3 mg/kg, 24h): 131.926 nM and 103.198 nM
concentration at 4 h (Capan-2, study Capan-2 #3_PHA 2023, 3 mg/kg, 48h): 42.167 nM and 42.4136 nM
concentration at 4 h (Capan-2, study Capan-2 #3_PHA 2023, 10 mg/kg, 2h): 596.75 nM and 1028.28 nM
concentration at 4 h (Capan-2, study Capan-2 #3_PHA 2023, 10 mg/kg, 4h): 1166.37 nM and 954.307 nM
concentration at 4 h (Capan-2, study Capan-2 #3_PHA 2023, 10 mg/kg, 8h): 1105.96 nM and 773.062 nM
concentration at 4 h (Capan-2, study Capan-2 #3_PHA 2023, 10 mg/kg, 24h): 401.943 nM and 517.841 nM
concentration at 4 h (Capan-2, study Capan-2 #3_PHA 2023, 10 mg/kg, 48h): 125.761 nM and 157.818 nM
concentration at 4 h (Capan-2, study Capan-2 #3_PHA 2023, 25 mg/kg, 2h): 1750.8 nM and 1824.77 nM
concentration at 4 h (Capan-2, study Capan-2 #3_PHA 2023, 25 mg/kg, 4h): 5030.45 nM and 3020.74 nM
concentration at 4 h (Capan-2, study Capan-2 #3_PHA 2023, 25 mg/kg, 8h): 2379.6 nM and 2700.17 nM
concentration at 4 h (Capan-2, study Capan-2 #3_PHA 2023, 25 mg/kg, 24h): 1997.39 nM and 1442.56 nM
concentration at 4 h (Capan-2, study Capan-2 #3_PHA 2023, 50 mg/kg, 2h): 5178.41 nM and 4956.48 nM
concentration at 4 h (Capan-2, study Capan-2 #3_PHA 2023, 50 mg/kg, 4h): 6411.36 nM and 6731.93 nM
concentration at 4 h (Capan-2, study Capan-2 #3_PHA 2023, 50 mg/kg, 8h): 6251.08 nM and 3945.45 nM
concentration at 4 h (Capan-2, study Capan-2 #3_PHA 2023, 50 mg/kg, 24h): 2996.08 nM and 1775.45 nM
concentration at 4 h (Capan-2, study Capan-2 #3_PHA 2023, 100 mg/kg, 2h): 9025.23 nM and 8877.27 nM
concentration at 4 h (Capan-2, study Capan-2 #3_PHA 2023, 100 mg/kg, 4h): 16521.6 nM and 11417.2 nM
concentration at 4 h (Capan-2, study Capan-2 #3_PHA 2023, 100 mg/kg, 8h): 14795.5 nM and 9185.51 nM
concentration at 4 h (Capan-2, study Capan-2 #3_PHA 2023, 100 mg/kg, 24h): 4216.7 nM and 3328.98 nM
concentration at 4 h (Capan-2, study Capan-2 #3_PHA 2023, 100 mg/kg, 48h): 1124.45 nM and 1331.59 nM
concentration at 4 h (HPAC #3, 50 mg/kg, 24h, individual animals, 50 mg/kg): 3354 nM
concentration at 4 h (HPAC #3, 50 mg/kg, 48h, individual animals, 50 mg/kg): 1332 nM and 1603 nM
concentration at 4 h (HPAC #4, 3 mg/kg, 4h, individual animals, 3 mg/kg): 108 nM and 297 nM and 238 nM
concentration at 4 h (HPAC #4, 3 mg/kg, 8h, individual animals, 3 mg/kg): 335 nM and 387 nM
concentration at 4 h (HPAC #4, 3 mg/kg, 24h, individual animals, 3 mg/kg): 207 nM and 164 nM
RMC-6236 (nM) Tumor (HPAC #4, 3 mg/kg, 48h, individual animals): BQL
concentration at 4 h (HPAC #4, 3 mg/kg, 48h, individual animals, 3 mg/kg): 29.3 nM
concentration at 4 h (HPAC #4, 10 mg/kg, 4h, individual animals, 10 mg/kg): 957 nM and 831 nM
concentration at 4 h (HPAC #4, 10 mg/kg, 8h, individual animals, 10 mg/kg): 1566 nM and 1418 nM
concentration at 4 h (HPAC #4, 10 mg/kg, 24h, individual animals, 10 mg/kg): 386 nM and 374 nM
concentration at 4 h (HPAC #4, 10 mg/kg, 48h, individual animals, 10 mg/kg): 210 nM and 212 nM
concentration at 4 h (HPAC #4, 25 mg/kg, 4h, individual animals, 25 mg/kg): 2897 nM and 4130 nM
RMC-6236 (nM) Tumor (HPAC #11, 0.3 mg/kg, 4h, individual animals): BQL
RMC-6236 (nM) Tumor (HPAC #11, 0.3 mg/kg, 8h, individual animals): BQL
RMC-6236 (nM) Tumor (HPAC #11, 0.3 mg/kg, 24h, individual animals): BQL
RMC-6236 (nM) Tumor (HPAC #11, 0.3 mg/kg, 48h, individual animals): BQL
RMC-6236 (nM) Tumor (HPAC #11, 1 mg/kg, 24h, individual animals): BQL
RMC-6236 (nM) Tumor (HPAC #11, 1 mg/kg, 48h, individual animals): BQL
Tumor AUClast (HPAC (25 mg/kg), single dose): 79219 ng·h/mL
Tumor Cmax (HPAC (25 mg/kg), single dose): 3007 ng/mL
Tumor AUClast (KP-4 (25 mg/kg), single dose): 79463 ng·h/mL
Tumor Cmax (KP-4 (25 mg/kg), single dose): 3582 ng/mL
Brain AUClast [5]: 396 ng·h/mL
Brain Cmax [5]: 63.2 ng/mL
Tumor AUClast [6]: 2537 ng·h/mL
Tumor Cmax [6]: 139 ng/mL
Tumor AUClast [7]: 2004 ng·h/mL
Tumor Cmax [7]: 142 ng/mL
Tumor AUClast (h × ng/mL) [8]: 75128 #2 h × ng/mL
Tumor Cmax (ng/mL) [8]: 2367 #2 ng/mL
Tumor AUClast [9]: 51307 ng·h/mL
Tumor Cmax [9]: 3083 ng/mL
Tumor AUClast [10]: 32762 ng·h/mL
Tumor Cmax [10]: 1527 ng/mL
Tumor AUClast [11]: 6321 ng·h/mL
Tumor Cmax [11]: 253 ng/mL
Tumor AUClast [12]: 17526 ng·h/mL
Tumor Cmax [12]: 821 ng/mL
Tumor AUClast [13]: 55019 ng·h/mL
Tumor Cmax [13]: 2083 ng/mL
RMC-6236 (nM) Tumor (NCI-H441 xenograft tumor, study NCI-H441#10, 0.3 mg/kg, 48h): BQL
RMC-6236 (nM) Tumor (NCI-H441 xenograft tumor, study NCI-H441#10, 1 mg/kg, 48h): BQL
RMC-6236 (nM) Tumor (NCI-H441 xenograft tumor, study NCI-H441#13, 0.3 mg/kg, 24h): BQL
